Test results as given in patent US11685747B2, “Compounds that inhibit MCL-1 protein” (AMGEN INC., priority 2014, dated 2023).
pIC50: −log10 of the molar value.

Key:
OPM-2 = assay: Cell viability assay (OPM-2 10 FBS, CellTiter-Glo); type: cell-based, human; details: OPM-2 cells
Description: Cell Viability Assay (OPM-2 10 FBS)
Cells were seeded into 384-well plates at 3000 cells/well density in complete growth medium containing 10% FBS, and incubated for 16 h with serially diluted test compounds in a 37° C. incubator with 5% CO2. Cell viability was tested using CellTiter-Glo® assay (Promega, Madison, Wis.) according to the manufacturer recommendations. Luminescence was determined using an EnVision® Multilabel plate reader 25 min after the addition of detection reagent. IC50 values were then calculated with Xlfit using a logistical 4-parameter fit model in GraphPad Prism (GraphPad Software, San Diego, Calif.) or in Genedata Screener® (Genedata, Basel, Switzerland).

recombinant human Mcl-1 = target: T1, recombinant human Mcl-1 (Homo sapiens, UniProt Q07820); assay: Cell free Mcl-1:Bim affinity assay (Mcl-1 HTRF, TR-FRET); type: binding; details: inhibition of Mcl-1/Bim interaction
T1 construct: C-terminally 6×His tagged Mcl-1 containing residues 171-327; made in house
T1 sequence (Q07820 171-327): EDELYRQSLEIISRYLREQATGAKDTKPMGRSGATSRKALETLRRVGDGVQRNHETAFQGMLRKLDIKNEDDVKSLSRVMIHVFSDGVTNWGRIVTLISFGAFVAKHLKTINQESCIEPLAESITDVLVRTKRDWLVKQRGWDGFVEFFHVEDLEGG
Description: Cell Free Mcl-1:Bim Affinity Assay (Mcl-1 HTRF)
The inhibition of the Mcl-1/Bim interaction was measured using a time-resolved fluorescence resonance energy transfer (TR-FRET) assay. […] A biotinylated peptide derived from human Bim (residues 51-76) was purchased from CPC Scientific (San Jose, Calif.). The TR-FRET assay was conducted in a 384-well white OptiPlate™ (PerkinElmer, Waltham, Mass.) in a total volume of 40 μL. […] The reaction plates were further incubated overnight and then were read on an Envision® multimode reader (PerkinElmer). […] The IC50 values of test compounds were determined from duplicate data by analyzing competition curves using a four-parameter sigmoidal model in GraphPad Prism (GraphPad Software, San Diego, Calif.) or in Genedata Screener® (Genedata, Basel, Switzerland).

[1] = target: T2, Mcl-1/Bak protein-protein interactions (Homo sapiens, UniProt Q07820); assay: Cell-based split luciferase complementation assay; details: HEK 293 M cells, serum-free, 4 h
T2 construct: expressed in transfected cells; host or cells: HEK 293 M cells, transient transfection
T2 sequence (Q07820 whole entry): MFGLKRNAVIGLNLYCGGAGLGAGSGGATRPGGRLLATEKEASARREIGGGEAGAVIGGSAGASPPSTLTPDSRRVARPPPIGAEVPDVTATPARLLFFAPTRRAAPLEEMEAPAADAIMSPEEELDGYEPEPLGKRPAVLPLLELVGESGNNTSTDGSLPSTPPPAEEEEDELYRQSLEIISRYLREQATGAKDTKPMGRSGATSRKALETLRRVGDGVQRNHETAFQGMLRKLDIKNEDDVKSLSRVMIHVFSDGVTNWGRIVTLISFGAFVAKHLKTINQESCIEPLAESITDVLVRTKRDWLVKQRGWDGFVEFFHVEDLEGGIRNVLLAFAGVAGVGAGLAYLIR
Description: Cell-Based Assay (Split Luciferase)
A split luciferase complementation assay was developed to determine the inhibition of Mcl-1/Bak protein-protein interactions in cells. […] Transient transfection was performed using Lipofectamine® LTX/Plus™ reagent (Life Technologies, Grand Island, N.Y.). 24 h after transfection, cells were collected using non-enzyme based cell dissociation buffer StemPro® Accutase® (Life Technologies), and resuspended in serum-free Opti-MEM® (Life Technologies). Cells were then seeded into assay plates with serially diluted test compounds in 0.3% DMSO at density of a 5000 cells/well. Cells were then incubated for 4 h at 37° C. in a cell culture incubator supplement with 5% CO2. Test plates were equilibrated to room temperate for 30 min before addition of 30 μL Steady-Glo® Luciferase assay reagent (Promega, Madison, Wis.) into each test well. Luminescence was determined using an EnVision® Multilabel plate reader 25 min after the addition of detection reagent. IC50 values were then calculated with Xlfit using a logistical 4-parameter fit model in GraphPad Prism (GraphPad Software, San Diego, Calif.) or in Genedata Screener® (Genedata, Basel, Switzerland).

SMILES | pIC50 (OPM-2; Homo sapiens, OPM-2, 16 h) | pIC50 (recombinant human Mcl-1) | pIC50 [1] | pIC50 (OPM-2; 16 h) | pIC50 (OPM-2; Homo sapiens, 16 h)
O=C1NS(=O)(=O)CCCCC[C@H](O)[C@@H]2CC[C@H]2CN2C[C@@]3(CCCc4cc(Cl)ccc43)COc3ccc1cc32 [Example 10, (1S,3′R,6′R,7′S)-6-Chloro-7′-Hydroxy-3,4-Dihydro-2H,15′Hspiro[Naphthalene-1,22′[20]Oxa[13]Thia[1,14]Diazatetracyclo[14.7.2.0^3,6.0^19,24]Penta Cosa[16,18,24]Trien]-15′-One 13′,13′-Dioxide] | 5.03 | 8.93 | 6.63 | – | –
C[C@H]1CCC[C@H](O)[C@@H]2CC[C@H]2CN2C[C@@]3(CCCc4cc(Cl)ccc43)COc3ccc(cc32)C(=O)NS(=O)(=O)[C@H]1C [Example 37, (1S,3′R,6′R,7′S,11′S,12′S)-6-Chloro-7′-Hydroxy-11,12′-Dimethyl-3,4-Dihydro-2H,15′H-Spiro[Naphthalene-1,22′-[20]Oxa[13]Thia[1,14]Diazatetracyclo[14.7.2.0^3,6.0^19,24]Pentacos A[16,18,24]Trien]-15′-One 13′,13′-Dioxide] | 5.24 | – | 6.18 | – | –
CC(C)C[C@@H]1[C@@H](C)C/C=C/[C@H](O)[C@@H]2CC[C@H]2CN2C[C@@]3(CCCc4cc(Cl)ccc43)COc3ccc(cc32)C(=O)NS1(=O)=O (single isomer, unassigned) [Example 66] | – | 8.67 | 6.65 | 5.63 | –
C[C@H]1C/C=C/[C@H](O)[C@@H]2CC[C@H]2CN2C[C@@]3(CCCc4cc(Cl)ccc43)COc3ccc(cc32)C(=O)NS(=O)(=O)C1 (single isomer, unassigned) [Example 29] | – | 8.03 | 6.34 | 5.25 | –
CC[C@@H]1[C@@H](C)C/C=C/[C@H](OC)[C@@H]2CC[C@H]2CN2C[C@@]3(CCCc4cc(Cl)ccc43)COc3ccc(cc32)C(=O)NS1(=O)=O [Example 25, (1S,3′R,6′R,7′S,8′E,11′S,12′R)-6-Chloro-12′-Ethyl-7′-Methoxy-11′-Methyl-3,4-Dihydro-2H,15′H-Spiro[Naphthalene-1,22′-[20]Oxa[13]Thia[1,14]Diazatetracyclo[14.7.2.0^3,6.0^19,24]Pentacosa[8,16,18,24]Tetraen]-15′-One 13′,13′-Dioxide] | 6.39 | 9.27 | 7.11 | – | –
CC1(C)CCCC[C@H](O)[C@@H]2CC[C@H]2CN2C[C@@]3(CCCc4cc(Cl)ccc43)COc3ccc(cc32)C(=O)NS1(=O)=O [Example 42] | – | 8.12 | 6.07 | – | –
CO[C@H]1/C=C/CC[C@@H](C)S(=O)(=O)NC(=O)c2ccc3c(c2)N(C[C@@H]2CC[C@H]21)C[C@@]1(CCCc2cc(Cl)ccc21)CO3 [Example 13, (1S,3′R,6′R,7′S,8′E,12′R)-6-Chloro-7′-Methoxy-12′-Methyl-3,4-Dihydro-2H,15′H-Spiro[Naphthalene-1,22′-[20]Oxa[13]Thia[1,14]Diazatetracyclo[14.7.2.0^3,6.0^19,24]Pentacos A[8,16,18,24]Tetraen]-15′-One 13′,13′-Dioxide] | 6.45 | 9.36 | 7.47 | – | –
CO[C@H]1/C=C/C[C@@H](C)[C@@H](C(C)C)S(=O)(=O)NC(=O)c2ccc3c(c2)N(C[C@@H]2CC[C@H]21)C[C@@]1(CCCc2cc(Cl)ccc21)CO3 [Example 53, (1S,3′R,6′R,7′S,8′E,11′R,12′R)-6-Chloro-7′-Methoxy-11′-Methyl-12′-(1-Methylethyl)-3,4-Dihydro-2H,15′H-Spiro[Naphthalene-1,22′-[20]Oxa[13]Thia[1,14]Diazatetracyclo[14.7.2.0^3,6.0^19,24]Pentacosa[8,16,18,24]Tetraen]-15′-One 13′,13′-Dioxide] | 6.48 | 8.86 | 7.29 | – | –
CCCCO[C@H]1/C=C/C[C@H](C)[C@@H](C)S(=O)(=O)NC(=O)c2ccc3c(c2)N(C[C@@H]2CC[C@H]21)C[C@@]1(CCCc2cc(Cl)ccc21)CO3 [Example 73, (1S,3′R,6′R,7′S,8′E,11′S,12′R)-7′-Butoxy-6-Chloro-11′,12′-Dimethyl-3,4-Dihydro-2H,15′H-Spiro[Naphthalene-1,22′ [20]Oxa[13]Thia[1,14]Diazatetracyclo[14.7.2.0^3,6.0^19,24]Pentacos A[8,16,18,24]Tetraen]-15′-One 13′,13′-Dioxide] | 6.76 | 9.44 | 7.46 | – | –
C[C@H]1C/C=C/[C@H](O)[C@@H]2CC[C@H]2CN2C[C@@]3(CCCc4cc(Cl)ccc43)COc3ccc(cc32)C(=O)NS(=O)(=O)[C@@H]1C1CCC1 (single isomer, unassigned) [Example 55] | – | 7.82 | 6.06 | 5.06 | –
C[C@H]1C/C=C/[C@H](O)[C@@H]2CC[C@H]2CN2C[C@@]3(CCCc4cc(Cl)ccc43)COc3ccc(cc32)C(=O)NS(=O)(=O)[C@@H]1C1CC1 (single isomer, unassigned) [Example 45] | – | 8.26 | 6.34 | 4.70 | –
CC[C@@H]1CC/C=C\[C@H](O)[C@@H]2CC[C@H]2CN2C[C@@]3(CCCc4cc(Cl)ccc43)COc3ccc(cc32)C(=O)NS1(=O)=O (single isomer, unassigned) [Example 18] | 6.16 | – | – | – | –
CC[C@H]1CC/C=C/[C@H](O)[C@@H]2CC[C@H]2CN2C[C@@]3(CCCc4cc(Cl)ccc43)COc3ccc(cc32)C(=O)NS1(=O)=O (single isomer, unassigned) [Example 19] | 5.40 | – | – | – | –
CO[C@H]1/C=C/C[C@H](C)[C@@H](C)S(=O)(=O)NC(=O)c2ccc3c(c2)N(C[C@@H]2CC[C@H]21)C[C@@]1(CCCc2cc(Cl)ccc21)CO3 [Example 4, (1S,3′R,6′R,7′S,8′E,11′S,12′R)-6-Chloro-7′-Methoxy-11′,12′-Dimethyl-3,4-Dihydro-2H,15′H-Spiro[Naphthalene-1,22′-[20]Oxa[13]Thia[1,14]Diazatetracyclo[14.7.2.0^3,6.0^19,24]Pentacos A[8,16,18,24]Tetraen]-15′-One-13′, 13′-Dioxide] | – | – | – | – | 6.63
CO[C@H]1/C=C\C[C@H](C)[C@@H](C)S(=O)(=O)NC(=O)c2ccc3c(c2)N(C[C@@H]2CC[C@H]21)C[C@@]1(CCCc2cc(Cl)ccc21)CO3 [Example 5, (1S,3′R,6′R,7′S,8′Z,11′S,12′R)-6-Chloro-7′-Methoxy-11′,12′-Dimethyl-3,4-Dihydro-2H,15′H-Spiro[Naphthalene-1,22′-[20]Oxa[13]Thia[1,14]Diazatetracyclo[14.7.2.0^3,6.0^19,24]Pentacos A[8,16,18,24]Tetraen]-15′-One 13′,13′-Dioxide] | 5.95 | – | – | – | –
C[C@@H]1CCC[C@H](O)[C@@H]2CC[C@H]2CN2C[C@@]3(CCCc4cc(Cl)ccc43)COc3ccc(cc32)C(=O)NS(=O)(=O)C1 (single isomer, unassigned) [Example 39] | – | 7.97 | – | – | –
C[C@H]1CCC[C@H](O)[C@@H]2CC[C@H]2CN2C[C@@]3(CCCc4cc(Cl)ccc43)COc3ccc(cc32)C(=O)NS(=O)(=O)C1 (single isomer, unassigned) [Example 38] | – | – | 5.98 | – | –
CC[C@H]1CCCC[C@H](O)[C@@H]2CC[C@H]2CN2C[C@@]3(CCCc4cc(Cl)ccc43)COc3ccc(cc32)C(=O)NS1(=O)=O [Example 23, (1S,3′R,6′R,7′S,12′S)-6-Chloro-12′-Ethyl-7′-Hydroxy-3,4-Dihydro-2H,15′H-Spiro[Naphthalene-1,22′-[20]Oxa[13]Thia[1,14]Diazatetracyclo[14.7.2.0^3,6.0^19,24]Pentacos A[16,18,24]Trien]-15′-One 13′,13′-Dioxide] | – | 8.43 | 6.43 | – | –
CC[C@@H]1CC/C=C/[C@H](O)[C@@H]2CC[C@H]2CN2C[C@@]3(CCCc4cc(Cl)ccc43)COc3ccc(cc32)C(=O)NS1(=O)=O (single isomer, unassigned) [Example 17] | 6.59 | – | – | – | –
C[C@@H]1CCC[C@H](O)[C@@H]2CC[C@H]2CN2C[C@@]3(CCCc4cc(Cl)ccc43)COc3ccc(cc32)C(=O)NS(=O)(=O)[C@H]1C (single isomer, unassigned) [Example 36] | – | 7.35 | 5.82 | – | –
